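In this assay, cells in 96-well plates receive the compound at five concentrations for 48 hours. Endpoints are linearly interpolated between the surrounding concentrations. At the GI50, growth is halved. TGI: total growth inhibition.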
How the values were obtained:
Assay in all cases: NCI tumour cell line growth inhibition, 48 h
COLO 205 colon = system: COLO 205 colon
OVCAR-3 ovarian = system: OVCAR-3 ovarian
MDA-MB-435 = system: MDA-MB-435
OVCAR-8 ovarian = system: OVCAR-8 ovarian
SK-MEL-2 melanoma = system: SK-MEL-2 melanoma
HT29 colon = system: HT29 colon
LOX IMVI melanoma = system: LOX IMVI melanoma
NCI-H522 lung = system: NCI-H522 lung
SF-295 CNS = system: SF-295 CNS
NCI-H226 lung = system: NCI-H226 lung
SK-OV-3 ovarian = system: SK-OV-3 ovarian
A549 NSCLC = system: A549 NSCLC
RPMI-8226 leukemia = system: RPMI-8226 leukemia
HCT-116 colon = system: HCT-116 colon
T-47D breast = system: T-47D breast
K-562 leukemia = system: K-562 leukemia
SNB-75 CNS = system: SNB-75 CNS
MDA-MB-231 breast = system: MDA-MB-231 breast
SF-268 CNS = system: SF-268 CNS
HOP-62 NSCLC = system: HOP-62 NSCLC
MOLT-4 leukemia = system: MOLT-4 leukemia
U251 CNS = system: U251 CNS
UACC-62 melanoma = system: UACC-62 melanoma
KM12 colon = system: KM12 colon
CCRF-CEM leukemia = system: CCRF-CEM leukemia
UACC-257 melanoma = system: UACC-257 melanoma
HS 578T breast = system: HS 578T breast
NCI-H23 lung = system: NCI-H23 lung
M14 melanoma = system: M14 melanoma
SNB-19 CNS = system: SNB-19 CNS
PC-3 prostate = system: PC-3 prostate
UO-31 renal = system: UO-31 renal
SW-620 colon = system: SW-620 colon
SK-MEL-28 melanoma = system: SK-MEL-28 melanoma
BT-549 breast = system: BT-549 breast
DU-145 prostate = system: DU-145 prostate
NCI-H460 lung = system: NCI-H460 lung
ACHN renal = system: ACHN renal
OVCAR-5 ovarian = system: OVCAR-5 ovarian
OVCAR-4 ovarian = system: OVCAR-4 ovarian
TK-10 renal = system: TK-10 renal
SK-MEL-5 melanoma = system: SK-MEL-5 melanoma
MCF7 breast = system: MCF7 breast
EKVX NSCLC = system: EKVX NSCLC
SF-539 CNS = system: SF-539 CNS
HOP-92 NSCLC = system: HOP-92 NSCLC
HCC-2998 colon = system: HCC-2998 colon
SN12C renal = system: SN12C renal
786-0 renal = system: 786-0 renal
NCI/ADR-RES ovarian = system: NCI/ADR-RES ovarian
IGROV1 ovarian = system: IGROV1 ovarian
HCT-15 colon = system: HCT-15 colon
CAKI-1 renal = system: CAKI-1 renal
RXF 393 renal = system: RXF 393 renal

Cc1ccc(Cl)cc1Nc1nc(C(F)(F)F)ccc1C(N)=O
GI50 (COLO 205 colon): 5.48 µM | TGI (COLO 205 colon): 71.2 µM | GI50 (OVCAR-3 ovarian): 13.2 µM | TGI (OVCAR-3 ovarian): 55.7 µM | GI50 (MDA-MB-435): 12 µM | TGI (MDA-MB-435): 60.4 µM | GI50 (OVCAR-8 ovarian): 29.4 µM | TGI (OVCAR-8 ovarian): > 100 µM | GI50 (SK-MEL-2 melanoma): 20.4 µM | TGI (SK-MEL-2 melanoma): > 100 µM | GI50 (HT29 colon): 4.02 µM | TGI (HT29 colon): > 100 µM | GI50 (LOX IMVI melanoma): 2.23 µM | TGI (LOX IMVI melanoma): 11.4 µM | GI50 (NCI-H522 lung): 4.63 µM | TGI (NCI-H522 lung): 60.7 µM | GI50 (SF-295 CNS): 11.9 µM | TGI (SF-295 CNS): 41.2 µM | GI50 (NCI-H226 lung): 1.45 µM | TGI (NCI-H226 lung): 9.81 µM | GI50 (SK-OV-3 ovarian): 16.9 µM | TGI (SK-OV-3 ovarian): > 100 µM | GI50 (A549 NSCLC): 12.8 µM | TGI (A549 NSCLC): > 100 µM | GI50 (RPMI-8226 leukemia): 18.6 µM | TGI (RPMI-8226 leukemia): 46.8 µM | GI50 (HCT-116 colon): 5.91 µM | TGI (HCT-116 colon): 22.8 µM | GI50 (T-47D breast): 3.54 µM | TGI (T-47D breast): > 100 µM | GI50 (K-562 leukemia): 21.3 µM | TGI (K-562 leukemia): 46.1 µM | GI50 (SNB-75 CNS): 8.65 µM | TGI (SNB-75 CNS): > 100 µM | GI50 (MDA-MB-231 breast): 2.47 µM | TGI (MDA-MB-231 breast): 11.8 µM | GI50 (SF-268 CNS): 6.46 µM | TGI (SF-268 CNS): > 100 µM | GI50 (HOP-62 NSCLC): 3.5 µM | TGI (HOP-62 NSCLC): 17.4 µM | GI50 (MOLT-4 leukemia): 7.54 µM | TGI (MOLT-4 leukemia): 48.4 µM | GI50 (U251 CNS): 4.09 µM | TGI (U251 CNS): 26.1 µM | GI50 (UACC-62 melanoma): 6.56 µM | TGI (UACC-62 melanoma): 26.6 µM | GI50 (KM12 colon): 5.09 µM | TGI (KM12 colon): 47.8 µM | GI50 (CCRF-CEM leukemia): 15.1 µM | TGI (CCRF-CEM leukemia): 36.2 µM | GI50 (UACC-257 melanoma): 24.8 µM | TGI (UACC-257 melanoma): 83.5 µM | GI50 (HS 578T breast): 0.809 µM | TGI (HS 578T breast): 3.94 µM | GI50 (NCI-H23 lung): 2.76 µM | TGI (NCI-H23 lung): 15.9 µM | GI50 (M14 melanoma): 10.7 µM | TGI (M14 melanoma): 35.7 µM | GI50 (SNB-19 CNS): 11.3 µM | TGI (SNB-19 CNS): > 100 µM | GI50 (PC-3 prostate): 14 µM | TGI (PC-3 prostate): 71.1 µM | GI50 (UO-31 renal): 5.37 µM | TGI (UO-31 renal): > 100 µM | GI50 (SW-620 colon): 6.98 µM | TGI (SW-620 colon): > 100 µM | GI50 (SK-MEL-28 melanoma): 43.8 µM | TGI (SK-MEL-28 melanoma): > 100 µM | GI50 (BT-549 breast): 4.53 µM | TGI (BT-549 breast): 28.6 µM | GI50 (DU-145 prostate): 9.77 µM | TGI (DU-145 prostate): > 100 µM | GI50 (NCI-H460 lung): 3.28 µM | TGI (NCI-H460 lung): > 100 µM | GI50 (ACHN renal): 3.67 µM | TGI (ACHN renal): 15.3 µM | GI50 (OVCAR-5 ovarian): 8.48 µM | TGI (OVCAR-5 ovarian): 49.4 µM | GI50 (OVCAR-4 ovarian): 22.3 µM | TGI (OVCAR-4 ovarian): > 100 µM | GI50 (TK-10 renal): 4.31 µM | TGI (TK-10 renal): 18.5 µM | GI50 (SK-MEL-5 melanoma): 1.92 µM | TGI (SK-MEL-5 melanoma): 6.6 µM | GI50 (MCF7 breast): 3.92 µM | TGI (MCF7 breast): > 100 µM | GI50 (EKVX NSCLC): 4.16 µM | TGI (EKVX NSCLC): 46.8 µM | GI50 (SF-539 CNS): 4.46 µM | TGI (SF-539 CNS): 28 µM | GI50 (HOP-92 NSCLC): 15.1 µM | TGI (HOP-92 NSCLC): 40.7 µM | GI50 (HCC-2998 colon): 6.1 µM | TGI (HCC-2998 colon): 20.3 µM | GI50 (SN12C renal): 5.5 µM | TGI (SN12C renal): 91.8 µM | GI50 (786-0 renal): 3.28 µM | TGI (786-0 renal): 13.6 µM | GI50 (NCI/ADR-RES ovarian): 5.7 µM | TGI (NCI/ADR-RES ovarian): 31.2 µM | GI50 (IGROV1 ovarian): 5.19 µM | TGI (IGROV1 ovarian): 59.2 µM | GI50 (HCT-15 colon): 5.73 µM | TGI (HCT-15 colon): > 100 µM | GI50 (CAKI-1 renal): 3.5 µM | TGI (CAKI-1 renal): 23.9 µM | GI50 (RXF 393 renal): 10.5 µM | TGI (RXF 393 renal): 34 µM

Source: PubChem BioAssay (NCI)
